Measurements published in ChEMBL document CHEMBL6109138 (J Med Chem, 2025).
pKi: −log10 of the molar value. Values after ≈ are worked out from the molar mass of the structure shown.

What was measured:
D(2) dopamine receptor = D(2) dopamine receptor (Homo sapiens, UniProt P14416); assay: Displacement of [3H]N-methylspiperone from human D2L receptor extracted from HEK293 cell membrane assessed as inhibition constant incubated for 1 hrs by radioligand competitive binding based scintillation counter analysis; format: cell membranes
D(2) dopamine receptor, sequence (P14416 whole entry): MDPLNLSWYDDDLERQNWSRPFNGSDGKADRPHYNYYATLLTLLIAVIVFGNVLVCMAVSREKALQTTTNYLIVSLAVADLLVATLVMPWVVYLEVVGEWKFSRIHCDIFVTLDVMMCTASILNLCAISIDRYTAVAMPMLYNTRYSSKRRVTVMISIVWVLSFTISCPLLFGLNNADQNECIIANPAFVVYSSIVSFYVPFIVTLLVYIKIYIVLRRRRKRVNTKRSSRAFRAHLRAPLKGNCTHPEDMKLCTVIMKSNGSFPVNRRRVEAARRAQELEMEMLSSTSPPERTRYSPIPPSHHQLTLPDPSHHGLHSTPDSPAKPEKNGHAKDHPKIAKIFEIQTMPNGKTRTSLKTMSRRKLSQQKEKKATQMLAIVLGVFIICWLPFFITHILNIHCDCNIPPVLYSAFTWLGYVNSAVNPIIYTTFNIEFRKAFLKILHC

[1] = Kinetic solubility of compound pH 7.4; format: physicochemical; details: buffer, read-out: Kinetic_solubility
[2] = Protein binding in human plasma assessed as unbound fraction at 0.5 uM; format: ADME, cell-free
[3] = Protein binding in mouse plasma assessed as unbound fraction at 0.5 uM; format: ADME, cell-free
[4] = Metabolic stability in human liver microsomes assessed as intrinsic clearance measured per mg protein; format: ADME, Microsome; details: read-out: CLH
[5] = Metabolic stability in human liver microsomes assessed as intrinsic clearance measured per gram liver; format: ADME, Microsome
[6] = Metabolic stability in human liver microsomes assessed as half-life; format: ADME, Microsome
[7] = Metabolic stability in mouse liver microsomes assessed as intrinsic clearance measured per mg protein; format: ADME, Microsome; details: read-out: CLH
[8] = Metabolic stability in mouse liver microsomes assessed as intrinsic clearance measured per gram liver; format: ADME, Microsome
[9] = Metabolic stability in mouse liver microsomes assessed as half-life; format: ADME, Microsome
[10] = Apparent passive permeability across apical to basolateral side in MDCKII-MDR1 cells; format: ADME, cell-based, Canis lupus familiaris; details: dog, MDCK-MDR1
[11] = Apparent passive permeability across basolateral to apical side in MDCKII-MDR1 cells; format: ADME, cell-based, Canis lupus familiaris; details: dog, MDCK-MDR1
U-87 MG [12] = assay: Growth inhibition of human U-87 MG cells incubated for 48 hrs by SRB assay; format: functional, U-87MG ATCC
U-87 MG [13] = assay: Antitumor activity against human U-87 MG cells assessed as total growth inhibition incubated for 48 hrs by SRB assay; format: functional, U-87MG ATCC
U-87 MG [14] = assay: Antitumor activity against human U-87 MG cells assessed as lethal concentration incubated for 48 hrs by SRB assay; format: functional, U-87MG ATCC
T98G [15] = assay: Growth inhibition of human T98G cells incubated for 48 hrs by SRB assay; format: functional
T98G [16] = assay: Antitumor activity against human T98G cells assessed as total growth inhibition incubated for 48 hrs by SRB assay; format: functional
T98G [17] = assay: Antitumor activity against human T98G cells assessed as lethal concentration incubated for 48 hrs by SRB assay; format: functional
U-251 [18] = assay: Growth inhibition of human U-251MG cells incubated for 48 hrs by SRB assay; format: functional
U-251 [19] = assay: Antitumor activity against human U-251MG cells assessed as total growth inhibition incubated for 48 hrs by SRB assay; format: functional
U-251 [20] = assay: Antitumor activity against human U-251MG cells assessed as lethal concentration incubated for 48 hrs by SRB assay; format: functional; details: read-out: LC50 (the source's name)
[21] = target: T1, D(4) dopamine receptor (Homo sapiens) (UniProt P21917); assay: Partial agonist activity at D4 receptor (unknown origin) assessed as bias factor by beta-arrestin recruitment assay versus Gi activation assay; format: functional; details: filed as partial agonist
T1 sequence (whole entry): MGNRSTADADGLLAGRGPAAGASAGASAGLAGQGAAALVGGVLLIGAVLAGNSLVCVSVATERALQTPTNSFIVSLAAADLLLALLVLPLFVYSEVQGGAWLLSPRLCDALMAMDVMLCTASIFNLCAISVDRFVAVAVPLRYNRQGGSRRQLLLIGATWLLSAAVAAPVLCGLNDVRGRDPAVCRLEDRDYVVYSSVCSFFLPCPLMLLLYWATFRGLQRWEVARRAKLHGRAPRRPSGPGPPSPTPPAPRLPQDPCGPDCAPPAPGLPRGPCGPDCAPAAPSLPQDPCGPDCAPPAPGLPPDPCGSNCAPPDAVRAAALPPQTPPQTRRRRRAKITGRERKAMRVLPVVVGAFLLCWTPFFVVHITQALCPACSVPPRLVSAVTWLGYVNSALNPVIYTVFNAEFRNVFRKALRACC

[22] = target: T1, D(4) dopamine receptor (Homo sapiens); assay: Partial agonist activity at D4 receptor (unknown origin) assessed as bias factor by Gi activation assay versus beta-arrestin recruitment assay; format: functional; details: filed as partial agonist

Structure (SMILES) | pKi (D(2) dopamine receptor) | GI50 (U-87 MG [12]) [µM] | TGI (U-87 MG [13]) [µM] | GI50 (T98G [15]) [µM] | TGI (T98G [16]) [µM] | GI50 (U-251 [18]) [µM] | TGI (U-251 [19]) [µM] | CC50 (U-251 [20]) [µM] | other results
O=C1CCc2ccccc2N1CCCN1CCN(c2ccc(C(F)(F)F)cc2)CC1 | 4.53 | – | – | – | – | – | – | – | –
COC(=O)c1ccc(N2CCN(CCCN3C(=O)CCc4ccccc43)CC2)cc1 | 4.33 | – | – | – | – | – | – | – | –
O=C1CCc2ccccc2N1CCCN1CCN(c2ccc(I)cc2)CC1 | 5.49 | – | – | – | – | – | – | – | –
O=C1CCc2ccccc2N1CCCN1CCN(c2ccc3ccccc3c2)CC1 | 5.21 | 25.7 | 55.2 | 20 | 42.1 | 26.5 | 63.2 | 201 | solubility kinetic [1]: 163 µM (≈ 65.1 µg/mL); fraction unbound at 0.5 µM [2]: 0.41; fraction unbound at 0.5 µM [3]: 0.71; microsomal CLint [4]: 73.8 µL/min/mg; scaled CLint [5]: 2.95 mL/min/g; half-life [6]: 18.8 min; microsomal CLint [7]: 202 µL/min/mg; scaled CLint [8]: 9.09 mL/min/g; half-life [9]: 6.86 min; Papp A→B [10]: 17.7 nm/s; Papp B→A [11]: 20.6 nm/s; LC50 (U-87 MG [14]): 118 µM; LC50 (lethal concentration 50%) (T98G [17]): 96.7 µM
Cc1ccc2nc(CNCCCOc3ccccc3)cc(O)c2c1 | – | – | – | – | – | – | – | – | Activity [21]: 7.4
Cn1nnc2c(C(N)=O)ncn2c1=O [TEMOZOLOMIDE] | – | > 200 | > 200 | > 200 | > 200 | > 200 | > 200 | > 200 | –
O=C1CCc2ccccc2N1CCCN1CCN(c2ccccc2-c2ccccc2)CC1 | 7.12 | – | – | – | – | – | – | – | –
O=C1CCc2ccccc2N1CCCN1CCN(c2cccc3ccccc23)CC1 | 7.54 | 19.5 | 39.5 | 12.2 | 32.1 | 22.6 | 36.6 | 78.7 | solubility kinetic [1]: 112 µM (≈ 44.7 µg/mL); fraction unbound at 0.5 µM [2]: 0.23; fraction unbound at 0.5 µM [3]: 0.48; microsomal CLint [4]: 145 µL/min/mg; scaled CLint [5]: 5.78 mL/min/g; half-life [6]: 9.58 min; microsomal CLint [7]: 288 µL/min/mg; scaled CLint [8]: 13 mL/min/g; half-life [9]: 4.81 min; Papp A→B [10]: 18.4 nm/s; Papp B→A [11]: 34.7 nm/s; LC50 (U-87 MG [14]): 80 µM; LC50 (lethal concentration 50%) (T98G [17]): 71 µM
O=C1CCc2ccccc2N1CCCN1CCN(c2ccc(Cl)cc2)CC1 | – | 42.6 | 102 | 21.9 | 66.1 | 61.6 | 104 | 182 | LC50 (U-87 MG [14]): 245 µM; LC50 (lethal concentration 50%) (T98G [17]): 200 µM
O=C1CCc2ccccc2N1CCCN1CCN(c2ccc(Br)cc2)CC1 | 5.50 | – | – | – | – | – | – | – | –
CC(C)N1C[C@H](NC(=O)N2Cc3ccccc3[C@@H]2C)[C@@H](C)C1 | – | – | – | – | – | – | – | – | Activity [22]: 17
O=C1CCc2ccccc2N1CCCN1CCN(C2CCCCC2)CC1 | 4.60 | – | – | – | – | – | – | – | –
O=C1CCc2ccccc2N1CCCN1CCN(c2ccc(F)cc2)CC1 | 5.39 | – | – | – | – | – | – | – | –
